Experimental data published in PubChem BioAssay AID248 (DTP/NCI, 2004).
Several values for one entry are separate records, joined by “and”; a condition that tells them apart may be missing. Identical values can stand only once. Toxic doses and inconclusive results are not listed. Rule as the data show it: active = T/C of 150% or more; inactive = T/C below 125%.

System: L1210 leukemia ip in BDF1 mice, survival T/C
Assay: NCI In Vivo Anticancer Drug Screen. Data for tumor model L1210 Leukemia (intraperitoneal) in B6D2F1 (BDF1) mice
Conditions: higher = longer survival
Summary of the method: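 Read-out is survival time, reported as the treated-group measurement over the vehicle-control measurement.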

Measured: T/C

O=c1[nH]c(=O)n(C2CC(O)C(CO)O2)cc1F (configuration not stated)
inactive: endpoint: mean survival time, dose: 2.3 mg/kg/injection, schedule: Q01DX009 (ip), vehicle: saline 95 % of control and 100 % of control | endpoint: mean survival time, dose: 2.5 mg/kg/injection, schedule: Q01DX009 (ip), vehicle: saline 105 % of control | endpoint: mean survival time, dose: 3.12 mg/kg/injection, schedule: Q#A X Z (ip), vehicle: saline 109 % of control | endpoint: mean survival time, dose: 4.5 mg/kg/injection, schedule: Q01DX009 (ip), vehicle: saline 106 % of control | endpoint: mean survival time, dose: 5.0 mg/kg/injection, schedule: Q01DX009 (ip), vehicle: saline 103 % of control | endpoint: mean survival time, dose: 5.0 mg/kg/injection, schedule: Q01DX009 (oral), vehicle: saline 105 % of control | endpoint: mean survival time, dose: 6.25 mg/kg/injection, schedule: Q01DX Z (ip), vehicle: saline 105 % of control | endpoint: mean survival time, dose: 6.25 mg/kg/injection, schedule: Q#A X Z (ip), vehicle: saline 114 % of control | endpoint: mean survival time, dose: 9.0 mg/kg/injection, schedule: Q01DX009 (ip), vehicle: saline 103 % of control and 110 % of control | endpoint: mean survival time, dose: 10.0 mg/kg/injection, schedule: Q01DX005 (ip), vehicle: water 99 % of control and 102 % of control | endpoint: mean survival time, dose: 10.0 mg/kg/injection, schedule: Q01DX009 (ip), vehicle: saline 112 % of control | endpoint: mean survival time, dose: 10.0 mg/kg/injection, schedule: Q01DX009 (oral), vehicle: saline 98 % of control | endpoint: mean survival time, dose: 11.0 mg/kg/injection, schedule: Q07DX Z (ip), vehicle: saline 106 % of control | endpoint: mean survival time, dose: 12.5 mg/kg/injection, schedule: Q01DX Z (ip), vehicle: saline 111 % of control | endpoint: mean survival time, dose: 18.0 mg/kg/injection, schedule: Q04DX002 (ip), vehicle: saline 106 % of control and 115 % of control | endpoint: mean survival time, dose: 20.0 mg/kg/injection, schedule: Q01DX009 (oral), vehicle: saline 105 % of control | endpoint: mean survival time, dose: 20.0 mg/kg/injection, schedule: Q01DX015 (ip), vehicle: water 111 % of control | endpoint: mean survival time, dose: 20.0 mg/kg/injection, schedule: Q01DX Z (ip), vehicle: saline 105 % of control | endpoint: mean survival time, dose: 22.0 mg/kg/injection, schedule: Q07DX Z (ip), vehicle: saline 102 % of control | endpoint: mean survival time, dose: 25.0 mg/kg/injection, schedule: Q01DX006 (iv), vehicle: saline 110 % of control | endpoint: mean survival time, dose: 25.0 mg/kg/injection, schedule: Q01DX Z (ip), vehicle: saline 111 % of control | endpoint: mean survival time, dose: 25.0 mg/kg/injection, schedule: Q01DX Z (sc), vehicle: saline 111 % of control | endpoint: mean survival time, dose: 25.9 mg/kg/injection, schedule: Q01DX009 (ip), vehicle: saline 115 % of control | endpoint: mean survival time, dose: 29.0 mg/kg/injection, schedule: Q02DX008 (ip), vehicle: water 98 % of control | endpoint: mean survival time, dose: 30.0 mg/kg/injection, schedule: Q01DX015 (ip), vehicle: water 108 % of control | endpoint: mean survival time, dose: 30.0 mg/kg/injection, schedule: Q01DX Z (ip), vehicle: saline 106 % of control | endpoint: mean survival time, dose: 36.0 mg/kg/injection, schedule: Q04DX002 (ip), vehicle: saline 100 % of control and 110 % of control | endpoint: mean survival time, dose: 40.0 mg/kg/injection, schedule: Q01DX Z (ip), vehicle: saline 112 % of control | endpoint: mean survival time, dose: 42.0 mg/kg/injection, schedule: Q02DX008 (ip), vehicle: water 101 % of control | endpoint: mean survival time, dose: 44.0 mg/kg/injection, schedule: Q07DX Z (ip), vehicle: saline 106 % of control | endpoint: mean survival time, dose: 50.0 mg/kg/injection, schedule: Q01DX001 (ip), vehicle: saline 107 % of control | endpoint: mean survival time, dose: 50.0 mg/kg/injection, schedule: Q01DX Z (oral), vehicle: saline 107 % of control | endpoint: mean survival time, dose: 50.0 mg/kg/injection, schedule: Q02DX009 (ip), vehicle: saline 110 % of control | endpoint: mean survival time, dose: 50.0 mg/kg/injection, schedule: Q04DX003 (ip), vehicle: saline 105 % of control | endpoint: mean survival time, dose: 60.0 mg/kg/injection, schedule: Q## X004 (ip), vehicle: water 108 % of control | endpoint: mean survival time, dose: 63.0 mg/kg/injection, schedule: Q02DX008 (ip), vehicle: water 111 % of control | endpoint: mean survival time, dose: 75.0 mg/kg/injection, schedule: Q03DX006 (ip), vehicle: saline 111 % of control | endpoint: mean survival time, dose: 80.0 mg/kg/injection, schedule: Q01DX Z (ip), vehicle: saline 102 % of control | endpoint: mean survival time, dose: 80.0 mg/kg/injection, schedule: Q## X032 (ip), vehicle: water 108 % of control | endpoint: mean survival time, dose: 88.0 mg/kg/injection, schedule: Q07DX Z (ip), vehicle: saline 113 % of control | endpoint: mean survival time, dose: 90.0 mg/kg/injection, schedule: Q## X004 (ip), vehicle: water 98 % of control | endpoint: mean survival time, dose: 100.0 mg/kg/injection, schedule: Q01DX001 (ip), vehicle: saline 104 % of control and 110 % of control | endpoint: mean survival time, dose: 100.0 mg/kg/injection, schedule: Q01DX001 (ip), vehicle: water 100 % of control | endpoint: mean survival time, dose: 100.0 mg/kg/injection, schedule: Q01DX005 (ip), vehicle: saline 116 % of control | endpoint: mean survival time, dose: 100.0 mg/kg/injection, schedule: Q01DX Z (sc), vehicle: saline 111 % of control | endpoint: mean survival time, dose: 100.0 mg/kg/injection, schedule: Q04DX003 (ip), vehicle: saline 111 % of control | endpoint: mean survival time, dose: 100.0 mg/kg/injection, schedule: Q04DX005 (ip), vehicle: saline 115 % of control | endpoint: mean survival time, dose: 100.0 mg/kg/injection, schedule: Q#A X Z (ip), vehicle: saline 105 % of control | endpoint: mean survival time, dose: 125.0 mg/kg/injection, schedule: Q01DX001 (ip), vehicle: saline 112 % of control | endpoint: mean survival time, dose: 150.0 mg/kg/injection, schedule: Q01DX001 (ip), vehicle: water 102 % of control | endpoint: mean survival time, dose: 160.0 mg/kg/injection, schedule: Q01DX009 (ip), vehicle: saline 100 % of control | endpoint: mean survival time, dose: 160.0 mg/kg/injection, schedule: Q01DX009 (oral), vehicle: saline 101 % of control | endpoint: mean survival time, dose: 160.0 mg/kg/injection, schedule: Q01DX Z (ip), vehicle: saline 110 % of control | endpoint: mean survival time, dose: 175.0 mg/kg/injection, schedule: Q07DX003 (ip), vehicle: saline 114 % of control | endpoint: mean survival time, dose: 200.0 mg/kg/injection, schedule: Q01DX001 (ip), vehicle: saline 106 % of control and 107 % of control | endpoint: mean survival time, dose: 200.0 mg/kg/injection, schedule: Q01DX017 (ip), vehicle: saline 100 % of control | endpoint: mean survival time, dose: 200.0 mg/kg/injection, schedule: Q01DX Z (im), vehicle: saline 107 % of control | endpoint: mean survival time, dose: 200.0 mg/kg/injection, schedule: Q01DX Z (ip), vehicle: carboxymethylcellulose (CMC) 94 % of control | endpoint: mean survival time, dose: 200.0 mg/kg/injection, schedule: Q01DX Z (ip), vehicle: saline 102 % of control | endpoint: mean survival time, dose: 200.0 mg/kg/injection, schedule: Q01DX Z (sc), vehicle: saline 96 % of control | endpoint: mean survival time, dose: 200.0 mg/kg/injection, schedule: Q04DX002 (ip), vehicle: water 112 % of control | endpoint: mean survival time, dose: 225.0 mg/kg/injection, schedule: Q01DX001 (ip), vehicle: water 110 % of control | endpoint: mean survival time, dose: 250.0 mg/kg/injection, schedule: Q01DX001 (ip), vehicle: saline 109 % of control | endpoint: mean survival time, dose: 250.0 mg/kg/injection, schedule: Q01DX Z (ip), vehicle: saline 95 % of control | endpoint: mean survival time, dose: 270.0 mg/kg/injection, schedule: Q01DX009 (ip), vehicle: saline 115 % of control | endpoint: mean survival time, dose: 270.0 mg/kg/injection, schedule: Q## X009 (ip), vehicle: saline 115 % of control | endpoint: mean survival time, dose: 300.0 mg/kg/injection, schedule: Q02DX010 (ip), vehicle: other 108 % of control | endpoint: mean survival time, dose: 320.0 mg/kg/injection, schedule: Q01DX009 (ip), vehicle: saline 101 % of control and 108 % of control | endpoint: mean survival time, dose: 320.0 mg/kg/injection, schedule: Q01DX009 (oral), vehicle: saline 93 % of control | endpoint: mean survival time, dose: 335.0 mg/kg/injection, schedule: Q01DX001 (ip), vehicle: saline 115 % of control | endpoint: mean survival time, dose: 350.0 mg/kg/injection, schedule: Q01DX Z (ip), vehicle: saline 104 % of control | endpoint: mean survival time, dose: 375.0 mg/kg/injection, schedule: Q04DX003 (ip), vehicle: saline 112 % of control | endpoint: mean survival time, dose: 400.0 mg/kg/injection, schedule: Q01DX001 (ip), vehicle: saline 116 % of control | endpoint: mean survival time, dose: 400.0 mg/kg/injection, schedule: Q01DX009 (ip), vehicle: saline 102 % of control | endpoint: mean survival time, dose: 400.0 mg/kg/injection, schedule: Q01DX Z (oral), vehicle: saline 105 % of control | endpoint: mean survival time, dose: 400.0 mg/kg/injection, schedule: Q02DX009 (ip), vehicle: saline 100 % of control | endpoint: mean survival time, dose: 450.0 mg/kg/injection, schedule: Q02DX010 (ip), vehicle: carboxymethylcellulose (CMC) 113 % of control | endpoint: mean survival time, dose: 450.0 mg/kg/injection, schedule: Q02DX010 (ip), vehicle: other 92 % of control | endpoint: mean survival time, dose: 500.0 mg/kg/injection, schedule: Q04DX003 (ip), vehicle: saline 105 % of control | endpoint: mean survival time, dose: 640.0 mg/kg/injection, schedule: Q01DX009 (ip), vehicle: saline 95 % of control | endpoint: mean survival time, dose: 640.0 mg/kg/injection, schedule: Q01DX009 (oral), vehicle: saline 96 % of control | endpoint: mean survival time, dose: 700.0 mg/kg/injection, schedule: Q07DX003 (ip), vehicle: saline 111 % of control | endpoint: mean survival time, dose: 714.0 mg/kg/injection, schedule: Q02DX008 (ip), vehicle: saline 113 % of control | endpoint: mean survival time, dose: 750.0 mg/kg/injection, schedule: Q01DX001 (ip), vehicle: saline 112 % of control | endpoint: mean survival time, dose: 800.0 mg/kg/injection, schedule: Q01DX001 (ip), vehicle: water 108 % of control | endpoint: mean survival time, dose: 800.0 mg/kg/injection, schedule: Q01DX Z (oral), vehicle: saline 108 % of control | endpoint: mean survival time, dose: 800.0 mg/kg/injection, schedule: Q04DX003 (ip), vehicle: saline 113 % of control | endpoint: mean survival time, dose: 800.0 mg/kg/injection, schedule: Q04DX005 (ip), vehicle: saline 114 % of control | endpoint: mean survival time, dose: 1071.0 mg/kg/injection, schedule: Q02DX008 (ip), vehicle: saline 104 % of control | endpoint: mean survival time, dose: 1344.0 mg/kg/injection, schedule: Q## X032 (ip), vehicle: water 107 % of control | endpoint: median survival time, dose: 160.0 mg/kg/injection, schedule: Q01DX009 (ip), vehicle: saline 100 % of control | endpoint: median survival time, dose: 320.0 mg/kg/injection, schedule: Q01DX009 (ip), vehicle: saline 106 % of control
